What was measured:
COX-2 = target: T1, COX-2 (Homo sapiens, UniProt P35354); assay: SPR, Biacore T200, CM5 chip, multi-cycle; type: binding
T1 construct: gene PTGS2; immobilised on CM5 chip
T1 sequence (P35354 18-604): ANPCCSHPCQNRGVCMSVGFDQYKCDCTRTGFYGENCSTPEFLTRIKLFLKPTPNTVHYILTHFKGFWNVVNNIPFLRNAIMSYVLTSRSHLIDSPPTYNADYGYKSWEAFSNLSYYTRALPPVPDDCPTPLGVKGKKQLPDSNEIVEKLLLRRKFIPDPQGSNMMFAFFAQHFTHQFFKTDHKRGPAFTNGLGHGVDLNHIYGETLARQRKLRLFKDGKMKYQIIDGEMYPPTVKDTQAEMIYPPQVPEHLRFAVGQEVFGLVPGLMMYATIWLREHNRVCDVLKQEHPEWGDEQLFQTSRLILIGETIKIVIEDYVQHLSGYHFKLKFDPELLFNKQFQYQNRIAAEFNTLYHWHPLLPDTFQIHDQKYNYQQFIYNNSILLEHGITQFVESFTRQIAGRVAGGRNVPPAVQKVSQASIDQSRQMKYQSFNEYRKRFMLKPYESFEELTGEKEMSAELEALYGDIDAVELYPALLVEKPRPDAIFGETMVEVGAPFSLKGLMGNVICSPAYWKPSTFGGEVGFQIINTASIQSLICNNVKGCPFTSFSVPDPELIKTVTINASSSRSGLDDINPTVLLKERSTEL

ALOX5 = target: T2, ALOX5 (Homo sapiens, UniProt P09917); assay: SPR, Biacore T200, CM5 chip, multi-cycle; type: binding
T2 construct: immobilised on CM5 chip
T2 sequence (P09917 1-674): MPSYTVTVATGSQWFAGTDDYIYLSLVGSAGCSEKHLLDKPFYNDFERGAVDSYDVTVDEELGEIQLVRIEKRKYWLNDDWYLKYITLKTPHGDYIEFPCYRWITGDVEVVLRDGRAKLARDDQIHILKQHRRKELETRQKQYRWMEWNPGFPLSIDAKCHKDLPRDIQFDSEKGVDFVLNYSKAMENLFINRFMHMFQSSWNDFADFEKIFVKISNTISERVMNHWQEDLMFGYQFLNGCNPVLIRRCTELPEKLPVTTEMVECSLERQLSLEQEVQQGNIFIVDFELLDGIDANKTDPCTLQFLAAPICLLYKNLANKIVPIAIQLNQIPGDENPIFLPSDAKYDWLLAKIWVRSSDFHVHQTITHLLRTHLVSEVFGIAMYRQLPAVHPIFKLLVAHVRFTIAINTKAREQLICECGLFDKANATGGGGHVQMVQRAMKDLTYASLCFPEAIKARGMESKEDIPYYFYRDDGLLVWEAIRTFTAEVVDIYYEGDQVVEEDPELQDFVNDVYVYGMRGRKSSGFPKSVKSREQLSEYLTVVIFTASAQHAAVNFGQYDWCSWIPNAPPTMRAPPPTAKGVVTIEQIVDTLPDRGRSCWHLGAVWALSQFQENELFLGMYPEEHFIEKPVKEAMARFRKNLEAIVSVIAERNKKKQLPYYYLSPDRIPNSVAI

Kd (COX-2): 14.8 µM | Kd (ALOX5): 21.8 µM
Compound: COc1cc2c(c(OC)c1OC)-c1c(cc(OC)c(OC)c1OC)C[C@H](C)[C@H](C)C2 [Schizandrin A]
